Experimental data as given in PubChem BioAssay AID743395 (Broad Institute, 2014).

Tested on: HepG2 viability, CellTiter-Glo ATP luminescence, 72 h
Assay: HepG2 cell cytotoxicity, dose response, cytotoxicity control, CellTiter-Glo luminescence, cherry-pick, set 2 (AID 743395)

Cc1ccc(-c2ccc3c(c2)O[C@H](CN(C)Cc2ccccn2)[C@@H](C)CN([C@H](C)CO)S3(=O)=O)cc1 gave an AC35 of 13.8 µM.

Work on O=C(CCCN1CCC(O)(c2cccc(C(F)(F)F)c2)CC1)c1ccc(F)cc1 yielded an AC35 of 22.2 µM.

In the case of CN1/C(=C\C=C2/SC(=S)NC2=O)C(C)(C)c2ccccc21, the AC35 was 17.9 µM.

Molecule CN(C)CCn1c2ccccc2c2nc3ccc([N+](=O)[O-])cc3cc21 has an AC35 of 20.8 µM.

For COc1cc(OC)c2c(-c3cccc(-c4sccc4C(C)=O)c3)cc(=O)oc2c1, the AC35 was 7.12 µM.

Molecule COc1cc(C(=O)Nc2ccc3c(c2)CCN3C(C)=O)cc(OC)c1OC has an AC35 of 3.94 µM.

Molecule Brc1ccc2c(c1)C(C1=NCCN1)c1ccccc1CS2 (configuration not stated) has an AC35 of 18.3 µM.

Cc1cc2c(cc1S(=O)(=O)Nc1ccc(F)cc1)n(C)c(=O)c(=O)n2C gave an AC35 of 18.2 µM.

N#C[C@H]1[C@H](c2ccc(C3=CCCCC3)cc2)[C@@H](CO)N1C(=O)NC1CCCCC1 was tested, and the AC35 was 10.3 µM.

CC(C)N1CCc2c(sc(NC(=O)c3ccc([N+](=O)[O-])o3)c2C(N)=O)C1 showed an AC35 of 4.77 µM.

Molecule Cc1ccc2c(C)c3ccc4ccccc4c3c[n+]2c1 has an AC35 of 5.47 µM.

With CCOC(=O)c1c(NC(=O)C2c3ccccc3Oc3ccccc32)sc(C(C)=O)c1C the AC35 was 17.6 µM.

In the case of CC(=O)Nc1ccc(Nc2c3ccccc3nc3ccccc23)cc1, the AC35 was 5.33 µM.

Molecule COc1ccc(CCNc2c3ccccc3nc3ccccc23)cc1OC has an AC35 of 6.93 µM.

In the case of COc1cc(C#Cc2ccc3cc(CCCO)oc(=O)c3c2)cc(OC)c1, the AC35 was 6.25 µM.

O=[N+]([O-])c1ccc(Sc2cccc[n+]2[O-])c2nonc12 was tested, and the AC35 was 5.72 µM.

Work on CC1(C(=O)NCc2ccccc2)Cc2c(-c3ccc(C(N)=O)cc3)ccnc2O1 (configuration not stated) yielded an AC35 of 13.8 µM.

For O=C(NCc1ccccc1)C1Cc2c(-c3ccc(Cl)cc3)ccnc2O1 (configuration not stated), the AC35 was 9.8 µM.

In the case of CC12CCC(CC1O)C2C(=O)O (configuration not stated), the AC35 was 17.9 µM.

With CC1(S(=O)(=O)O)CC(=O)c2ccccc2C1=O (configuration not stated) the AC35 was 20.1 µM.

For COC(=O)/C=C/c1ccccc1S(=O)(=O)N(Cc1ccccc1)Cc1ccco1, the AC35 was 15.4 µM.

For CC(=O)Nc1cccc(-c2ccnc3c2CC(C)(C(=O)Nc2ccc4c(c2)OCO4)O3)c1 (configuration not stated), the AC35 was 17.4 µM.

For CC(=O)NC(c1ccc(Cl)cc1Cl)c1ccc2cccnc2c1O (configuration not stated), the AC35 was 0.921 µM.

COc1cc(C2CC(=O)N(c3ccc(C)cc3)C(=O)C2)cc(OC)c1OC gave an AC35 of 10.7 µM.

O=C(CN1CCCC1)N/N=C/c1c(O)ccc2ccccc12 gave an AC35 of 12.6 µM.

For CC(C)CN(CCCNC(=O)CN1C(=O)CSc2ccc(S(=O)(=O)N3CCOCC3)cc21)CC(C)C, the AC35 was 6.21 µM.

Molecule O=C(C1CCCC1)N1CC(=O)N2[C@H](CO)[C@@H](c3ccc(-c4ccccc4F)cc3)[C@@H]2C1 has an AC35 of 16.3 µM.

With Cc1nc(N)[nH]c(=O)c1CCCNS(=O)(=O)c1ccc([N+](=O)[O-])cc1 the AC35 was 17.1 µM.

For COc1ccc(Nc2nc3cc(-c4sccc4C)sc3c(=O)n2C)cc1OC, the AC35 was 5.88 µM.

COc1ccc([C@H]2CC(=O)C=C(c3c(OC)cccc3OC)C2)cc1 was tested, and the AC35 was 3.37 µM.

COc1ccccc1C(=O)NC(=S)/C=C1/N(C)c2ccccc2C1(C)C showed an AC35 of 16 µM.

With C[C@H]1CN([C@@H](C)CO)S(=O)(=O)c2ccc(C#Cc3ccc(F)cc3)cc2O[C@H]1CN(C)C(=O)NC1CCCC1 the AC35 was 19.1 µM.

CC(=NNC(=S)Nc1ccc(C)cc1)c1ccccn1 gave an AC35 of 0.123 µM.

CC(=NNC(=S)N(Cc1ccccn1)Cc1ccccn1)c1cnccn1 showed an AC35 of 2.87 µM.

Molecule CCOC(=O)c1sc(Nc2nc(C)cc(C)n2)nc1C has an AC35 of 11.3 µM.

Cc1ccc(-c2csc(Nc3ccccn3)n2)cc1 gave an AC35 of 13 µM.

CC[n+]1c(-c2ccccc2)c2cc(N)ccc2c2ccc(N)cc21 was tested, and the AC35 was 21.5 µM.

Work on COc1ccc(/C=N/NC(=S)Nc2ccccc2[N+](=O)[O-])cc1O yielded an AC35 of 14.4 µM.

For COc1ccc(CN(C)C[C@H]2OCCCC[C@H](C)Oc3ccc(NC(=O)Nc4ccc(C(F)(F)F)cc4)cc3C(=O)N([C@H](C)CO)C[C@H]2C)cc1, the AC35 was 10.1 µM.

Molecule CC1=C/C(=C\C=C(C#N)C#N)N(C)c2ccccc21 has an AC35 of 21.3 µM.

With Cc1ccc(-c2ccc([C@H]3[C@@H](CO)N4CCCCN(C(=O)Nc5cccc(F)c5)C[C@H]34)cc2)cc1 the AC35 was 11 µM.

Cc1c(C(=O)N/N=C/c2c(O)ccc3ccccc23)nnn1-c1nonc1N was tested, and the AC35 was 1.32 µM.

In the case of C1CCC(C(CC2CCCCN2)C2CCCCC2)CC1 (configuration not stated), the AC35 was 6.26 µM.

For COc1ccc([N+](=O)[O-])cc1Nc1c2ccccc2nc2ccccc12, the AC35 was 18.4 µM.

In the case of CCN(CC)CCn1c2ccccc2c2nc3ccccc3nc21, the AC35 was 19.9 µM.

COC(=O)C1=CN(c2ccc(OC)cc2OC)C(N)=C(C#N)C1c1ccccc1F (configuration not stated) showed an AC35 of 6.17 µM.

O=C1C=CCC(/C=C/c2ccccc2)O1 (configuration not stated) gave an AC35 of 19 µM.

Molecule COc1cccc(C2c3cc4c(cc3OC(NNC(N)=O)C2C)OCO4)c1O (configuration not stated) has an AC35 of 14.3 µM.

In the case of Cc1cccc(N2CCN(C(=O)c3ccc4[nH]c(C)c(C)c4c3)CC2)c1C, the AC35 was 2.5 µM.

Work on CCN(CC)C(=O)c1oc2ccc(S(=O)(=O)N3CC(C)CC(C)C3)cc2c1C (configuration not stated) yielded an AC35 of 12.9 µM.

N#Cc1c(-c2ccc(F)cc2)c(-c2ccc(F)cc2)nn(CCO)c1=O showed an AC35 of 4.03 µM.

Oc1c(Cl)cc(CN2CCOCC2)c2cccnc12 gave an AC35 of 7.67 µM.

COc1ccc(S(=O)(=O)N2CC[C@@H]3[C@H](CO)N(C)c4ccc(-c5ccc(F)cc5)cc4[C@@H]32)cc1 gave an AC35 of 2.21 µM.

With O=C(N/N=C/c1cc2c3c(c1O)CCCN3CCC2)c1ccccc1O the AC35 was 0.751 µM.

Molecule COc1cc(OC)cc(-c2nc3ccccc3c(=O)n2OC(=O)c2ccc(C)c(C)c2)c1 has an AC35 of 21.5 µM.

Work on O=C1c2cccc(NCCCNCCO)c2C(=O)c2cccc(NCCCNCCO)c21 yielded an AC35 of 3.61 µM.

Work on Cc1ccc(-c2ccc3c(c2)O[C@H](CN(C)Cc2ccccn2)[C@@H](C)CN([C@@H](C)CO)S3(=O)=O)cc1 yielded an AC35 of 16.8 µM.

Molecule COc1ccc2cc(CN(CC3CCCO3)C(=S)Nc3ccccc3)c(=O)[nH]c2c1 (configuration not stated) has an AC35 of 13 µM.

Cc1ccc2[nH]c(-c3ccccc3)cc(=O)c2c1 showed an AC35 of 5.6 µM.

With COc1ccc(OC)c(Nc2nc(-c3sc(NC(=O)C(C)(C)C)nc3C)cs2)c1 the AC35 was 9.87 µM.

COc1cc(-c2nccc3cc4c(cc23)OCO4)cc(OC)c1OC showed an AC35 of 5.6 µM.

CCOc1ccc(C(=O)O/N=C(\N)c2ccccn2)cc1 gave an AC35 of 16.5 µM.

O=S(=O)(Cc1ccc(Cl)cc1Cl)c1ccc(Cl)cc1 showed an AC35 of 11.3 µM.

For O=c1c2ccccc2oc2cc(-c3ccc4[nH]ccc4c3)ccc12, the AC35 was 4.72 µM.

CCc1ccc(-c2nc(C(N)=O)c3[nH]c(=O)n(-c4ccccc4OC)c3n2)cc1 showed an AC35 of 9.05 µM.

Work on COc1c(C=O)c2c(c(OC)c1OC)-c1ccc(OC)c(=O)cc1C(NC(C)=O)CC2 (configuration not stated) yielded an AC35 of 3.12 µM.

With CC(=O)c1ccc(Nc2cc(C)nc3c(C)cc(C)cc23)cc1 the AC35 was 7.71 µM.

In the case of NS(=O)(=O)c1ccc(S(=O)(=O)N(CCc2ccccc2)Cc2ccccn2)cc1, the AC35 was 21.5 µM.

CCCC#Cc1ccc([C@H]2[C@@H](CO)N3CCCCN(S(=O)(=O)c4ccccc4C)C[C@H]23)cc1 gave an AC35 of 8.96 µM.

Molecule COc1cccc(/C=N/NC(=O)C(=O)Nc2ccccc2OC(F)(F)C(F)F)c1O has an AC35 of 15 µM.

COC(=O)c1cn(NC(=O)c2cc([N+](=O)[O-])ccc2F)c(=O)c2ccccc12 gave an AC35 of 0.521 µM.

CN(Cc1ccccc1)S(=O)(=O)c1ccc(NC(=S)NC(=O)C2CCCC2)cc1 showed an AC35 of 9.62 µM.

COc1ccc([C@H]2CC(=O)C=C(c3ccc(OC)cc3OC)C2)cc1 gave an AC35 of 7.54 µM.

COc1ccc(NC(=O)c2nc(C)c(C3(C)CC(c4ccccc4)=NO3)s2)cc1 (configuration not stated) gave an AC35 of 17.1 µM.

Work on CC(C)CC#Cc1ccc([C@@H]2[C@@H](CO)N3CCCCN(C(=O)NC4CCCC4)C[C@H]23)cc1 yielded an AC35 of 9.9 µM.

CC(=NNC(=S)N1CC2CCC(CC2)C1)c1cnccn1 showed an AC35 of 0.171 µM.

In the case of Cc1cc(C)c2nc(Cl)c(CN(Cc3ccco3)C(=O)Nc3ccccc3C)cc2c1, the AC35 was 5.84 µM.
